Holding throughout (format): biochemical
One assay addresses JAK1 (Homo sapiens (Human), UniProt P23458). Briefly: Z'-LYTE enzymatic activity detection, JAK1. To be noted: test compound 300 nM; for inhibition at 0.3 µM: read-out: JAK1 % inhibitory rate @300 nM. The gist of the method: (§1)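 GST-tagged human recombinant kinases with Z′-LYTE peptides (Tyr6 for JAK1, Tyr4 for JAK2 and JAK3), ATP from kit, reacted 1 h at room temperature; development 1 h, ratio 445/520 nm at 400 nm excitation gives phosphorylation. Inhibition vs solvent control at 30 nM (JAK2, JAK3) or 300 nM (JAK1); tofacitinib as positive control.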

The next assay deals with TBK1 (Homo sapiens (Human), UniProt Q9UHD2). Briefly: Eurofins IC50Profiler radiometric kinase assay, TBK1. To be noted: 9 semilog concentrations. An excerpt: A proportion of the compounds of the present invention are subjected to kinase profile screening (KinaseProfiler™)) and enzymatic inhibitory activity (IC50Profiler™)) assay by entrusting Eurofins company (http://www.eurofins.com). Besides the kinases in the JAK family, the kinases that have been screened for their activity also include most Group 3F and Group 4 kinases (ITK, BLK, TBK1, VEGFRs, ERBBs, etc.), and blood system related kinases (Zhang J. et al. 2009, Nat. Rev. Cancer., 9: 28-39). The concentration of the test compound for kinase profile screening is 1 μM, and a gradient of 9 semilog concentration gradients are used to determine IC50. Detection is carried out according to standard procedure of Eurofins Company. Briefly, according to the requirements of different kinase reactions, 0.2 μL test compound (50 μM, dissolved in dimethyl sulfoxide (DMSO)) is added to reaction buffer containing specific kinase (the buffer system containing 20 mM MOPS, 1 mM EDTA, 0.01% Brij-35, 5% Glycerol, 0.1% β-mercaptoethanol, 1 mg/mL BSA, or 50 mM TRIS, 0.1 mM EGTA, 0.1 mM Na3VO4, 0.1% β-mercaptoethanol, 1 mg/mL BSA, based on the type of kinase used). Subsequently, a kinase specific substrate at a final concentration of 50 μM (specific substrate used for specific kinase), 10 mM Mg Acetate and isotope-labeled γ-^33P ATP (radio-activity of about 500 cpm/pmol) are sequentially added to a total volume of 10 μL for the reaction system. After incubation at room temperature for 40 min, the reaction is terminated by adding 3% phosphoric acid solution. The mixture is then transferred to a filter-type low temperature spray dryer (P30 filtermat), and washed by 75 mM phosphoric acid solution for 3 times and by methanol once. After drying, radio-activity is detected. For specific procedure, see the standard procedure provided by Eurofins Company: http://www.eurofins.com/media/9724077/kinaseprofiler_assay_protocol_guide_eurofins_v64.pdf).

The target of a further assay is JAK2 (Homo sapiens (Human), UniProt O60674). Briefly: Z'-LYTE enzymatic activity detection, JAK2. To be noted: test compound 30 nM; for inhibition at 0.03 µM: read-out: JAK2 % inhibitory rate @30 nM. In short, it runs like this: as §1
The next assay concerns the target JAK3 (Homo sapiens (Human), UniProt P52333). Kind of assay: Z'-LYTE enzymatic activity detection, JAK3. Conditions: test compound 30 nM; for inhibition at 0.03 µM: read-out: JAK3 % inhibitory rate @30 nM. In short, it runs like this:
as §1

Chain of TBK1 (Q9UHD2 whole entry, species assumed): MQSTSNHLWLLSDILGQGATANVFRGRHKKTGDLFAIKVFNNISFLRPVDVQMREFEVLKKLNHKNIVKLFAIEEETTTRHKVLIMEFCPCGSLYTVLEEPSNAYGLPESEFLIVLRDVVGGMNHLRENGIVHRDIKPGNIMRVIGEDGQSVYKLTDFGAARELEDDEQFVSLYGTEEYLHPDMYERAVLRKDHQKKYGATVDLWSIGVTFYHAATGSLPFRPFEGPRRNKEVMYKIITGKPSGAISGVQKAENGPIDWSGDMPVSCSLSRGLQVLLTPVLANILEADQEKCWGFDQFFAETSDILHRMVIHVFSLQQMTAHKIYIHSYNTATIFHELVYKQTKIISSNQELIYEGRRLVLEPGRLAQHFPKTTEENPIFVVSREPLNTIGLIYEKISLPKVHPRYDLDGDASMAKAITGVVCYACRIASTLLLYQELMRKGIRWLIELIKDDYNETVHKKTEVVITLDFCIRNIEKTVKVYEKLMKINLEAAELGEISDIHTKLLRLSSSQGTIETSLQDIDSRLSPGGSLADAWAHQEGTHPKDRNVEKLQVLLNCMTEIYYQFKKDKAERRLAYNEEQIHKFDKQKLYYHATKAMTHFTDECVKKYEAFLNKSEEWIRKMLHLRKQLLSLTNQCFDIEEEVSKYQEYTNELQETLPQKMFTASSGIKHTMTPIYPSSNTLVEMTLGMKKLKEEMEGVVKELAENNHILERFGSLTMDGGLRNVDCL
Chain of JAK2 (O60674 whole entry): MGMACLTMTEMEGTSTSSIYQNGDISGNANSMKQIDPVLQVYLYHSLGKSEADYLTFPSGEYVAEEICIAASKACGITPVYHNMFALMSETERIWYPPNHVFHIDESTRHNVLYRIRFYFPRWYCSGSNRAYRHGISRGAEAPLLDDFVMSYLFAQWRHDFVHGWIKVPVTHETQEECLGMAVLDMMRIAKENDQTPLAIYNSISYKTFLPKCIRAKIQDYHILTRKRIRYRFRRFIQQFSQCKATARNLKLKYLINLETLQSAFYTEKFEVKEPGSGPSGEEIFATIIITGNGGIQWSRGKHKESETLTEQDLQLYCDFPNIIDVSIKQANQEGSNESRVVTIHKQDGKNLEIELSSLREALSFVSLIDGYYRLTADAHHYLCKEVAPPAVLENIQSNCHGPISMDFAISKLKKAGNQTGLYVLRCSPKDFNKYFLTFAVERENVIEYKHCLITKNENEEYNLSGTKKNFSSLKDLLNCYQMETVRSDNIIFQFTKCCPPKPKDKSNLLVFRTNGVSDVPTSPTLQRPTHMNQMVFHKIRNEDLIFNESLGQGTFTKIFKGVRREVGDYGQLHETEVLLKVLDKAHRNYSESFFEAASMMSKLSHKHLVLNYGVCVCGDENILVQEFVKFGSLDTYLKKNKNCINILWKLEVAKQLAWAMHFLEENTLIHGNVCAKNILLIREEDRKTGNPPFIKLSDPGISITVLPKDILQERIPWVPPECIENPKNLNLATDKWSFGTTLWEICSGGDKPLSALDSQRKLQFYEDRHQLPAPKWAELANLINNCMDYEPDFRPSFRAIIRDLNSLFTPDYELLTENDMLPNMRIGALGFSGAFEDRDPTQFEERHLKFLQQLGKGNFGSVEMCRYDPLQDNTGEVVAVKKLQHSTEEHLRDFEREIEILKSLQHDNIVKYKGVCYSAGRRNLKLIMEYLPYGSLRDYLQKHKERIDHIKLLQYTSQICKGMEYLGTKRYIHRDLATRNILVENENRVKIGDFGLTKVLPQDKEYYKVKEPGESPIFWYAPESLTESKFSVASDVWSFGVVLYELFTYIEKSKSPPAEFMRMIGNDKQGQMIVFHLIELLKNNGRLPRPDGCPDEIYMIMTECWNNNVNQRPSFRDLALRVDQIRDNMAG
Chain of JAK1 (P23458 whole entry): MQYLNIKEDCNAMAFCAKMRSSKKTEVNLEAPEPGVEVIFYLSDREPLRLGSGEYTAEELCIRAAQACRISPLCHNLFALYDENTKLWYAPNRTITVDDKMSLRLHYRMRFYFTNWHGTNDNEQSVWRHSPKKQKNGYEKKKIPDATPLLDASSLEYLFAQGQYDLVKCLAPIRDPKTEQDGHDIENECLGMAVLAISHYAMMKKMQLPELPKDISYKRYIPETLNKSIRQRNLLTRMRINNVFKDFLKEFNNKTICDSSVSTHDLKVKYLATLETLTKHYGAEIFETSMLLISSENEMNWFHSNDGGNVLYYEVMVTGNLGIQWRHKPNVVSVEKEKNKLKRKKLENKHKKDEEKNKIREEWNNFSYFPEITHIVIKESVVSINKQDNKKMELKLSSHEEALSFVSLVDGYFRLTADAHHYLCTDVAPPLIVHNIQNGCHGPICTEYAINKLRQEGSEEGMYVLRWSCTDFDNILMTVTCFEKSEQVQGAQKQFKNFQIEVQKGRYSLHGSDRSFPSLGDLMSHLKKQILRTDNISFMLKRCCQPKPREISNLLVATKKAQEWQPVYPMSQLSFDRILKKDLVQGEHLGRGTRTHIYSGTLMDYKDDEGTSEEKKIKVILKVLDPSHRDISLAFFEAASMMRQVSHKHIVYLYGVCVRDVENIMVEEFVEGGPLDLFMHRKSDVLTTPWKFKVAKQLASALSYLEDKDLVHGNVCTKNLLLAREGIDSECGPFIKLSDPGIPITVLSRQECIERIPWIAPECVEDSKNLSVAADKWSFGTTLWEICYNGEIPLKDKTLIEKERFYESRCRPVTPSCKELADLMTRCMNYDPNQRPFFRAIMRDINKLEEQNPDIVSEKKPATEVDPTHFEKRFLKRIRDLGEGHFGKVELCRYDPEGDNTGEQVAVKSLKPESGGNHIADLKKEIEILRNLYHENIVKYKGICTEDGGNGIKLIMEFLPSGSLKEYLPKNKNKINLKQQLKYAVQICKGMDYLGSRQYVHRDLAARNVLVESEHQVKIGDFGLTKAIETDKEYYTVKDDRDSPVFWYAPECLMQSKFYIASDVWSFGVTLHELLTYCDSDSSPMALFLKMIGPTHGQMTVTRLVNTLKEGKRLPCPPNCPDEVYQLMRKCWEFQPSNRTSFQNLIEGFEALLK
Chain of JAK3 (P52333 whole entry): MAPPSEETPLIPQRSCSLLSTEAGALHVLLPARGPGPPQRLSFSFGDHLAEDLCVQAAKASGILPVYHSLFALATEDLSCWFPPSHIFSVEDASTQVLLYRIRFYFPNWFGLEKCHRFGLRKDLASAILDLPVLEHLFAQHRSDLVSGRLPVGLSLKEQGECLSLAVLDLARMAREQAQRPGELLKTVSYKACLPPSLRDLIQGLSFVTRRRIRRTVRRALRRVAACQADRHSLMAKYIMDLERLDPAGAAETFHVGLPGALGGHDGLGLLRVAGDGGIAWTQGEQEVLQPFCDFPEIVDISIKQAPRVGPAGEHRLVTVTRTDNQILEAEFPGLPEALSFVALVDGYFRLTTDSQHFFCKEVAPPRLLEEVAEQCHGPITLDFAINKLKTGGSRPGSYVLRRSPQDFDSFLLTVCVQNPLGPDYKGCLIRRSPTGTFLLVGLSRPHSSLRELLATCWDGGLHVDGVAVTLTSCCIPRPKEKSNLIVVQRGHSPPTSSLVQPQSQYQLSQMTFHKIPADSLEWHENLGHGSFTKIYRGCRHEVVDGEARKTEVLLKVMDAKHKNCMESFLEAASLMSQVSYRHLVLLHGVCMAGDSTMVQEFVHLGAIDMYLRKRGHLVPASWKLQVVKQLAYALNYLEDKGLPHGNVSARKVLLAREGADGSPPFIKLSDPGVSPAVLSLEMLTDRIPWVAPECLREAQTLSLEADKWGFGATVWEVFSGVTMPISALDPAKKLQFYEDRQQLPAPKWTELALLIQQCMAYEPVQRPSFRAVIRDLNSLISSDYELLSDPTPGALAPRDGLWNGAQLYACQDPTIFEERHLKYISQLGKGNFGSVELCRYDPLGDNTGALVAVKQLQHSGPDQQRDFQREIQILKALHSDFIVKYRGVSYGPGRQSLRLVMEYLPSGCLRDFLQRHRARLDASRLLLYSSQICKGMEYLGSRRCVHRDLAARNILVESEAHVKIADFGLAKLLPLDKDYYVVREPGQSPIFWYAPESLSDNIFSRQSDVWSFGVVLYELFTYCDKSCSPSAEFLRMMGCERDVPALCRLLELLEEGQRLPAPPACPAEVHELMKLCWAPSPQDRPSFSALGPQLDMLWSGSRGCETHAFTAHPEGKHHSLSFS

Take `C=CC(=O)N(C)c1cc(Nc2ncc(Cl)c(NCCCNC(=O)c3ccc(C#N)cc3)n2)ccc1F` [Example 7, N-(3-(5-chloro-2-(4-fluoro-3-(N-methylacrylamido)phenylamino)pyrimidinyl-4-amino)propyl)-4-cyano-benzamide]: at JAK1, the “JAK1 RV (ratio between the inhibitory rate of the test compound and that of Xeljanz)” value was 0.58; the inhibition at 0.3 µM turned out to be 56%. Further, half-maximal inhibition on TBK1 (IC50) required 162 nM. On JAK2, the “JAK2 RV (ratio between the inhibitory rate of the test compound and that of Xeljanz)” value was 0.08; the inhibition at 0.03 µM came to 5%. In addition, at JAK3, the “JAK3 RV (ratio between the inhibitory rate of the test compound and that of Xeljanz)” value is 0.84; the inhibition at 0.03 µM was 63%.
Take `C=CC(=O)N(C)c1cc(Nc2ncc(Cl)c(NCCCNC(=O)c3ccc(C(F)(F)F)cc3)n2)ccc1F` [Example 22, N-(3-(5-chloro-2-(4-fluoro-3-(N-methylacrylamido)phenylamino)pyrimidinyl-4-amino)propyl)-4-trifluoromethylbenzamide]: on JAK1, the “JAK1 RV (ratio between the inhibitory rate of the test compound and that of Xeljanz)” value is 0.33; the inhibition at 0.3 µM is 18%. For the same molecule, the IC50 at TBK1 was over 10000 nM. Also, the inhibition at 0.03 µM at JAK2 is 0%. At JAK3, the “JAK3 RV (ratio between the inhibitory rate of the test compound and that of Xeljanz)” value is 0.82; the inhibition at 0.03 µM is 75%.
For the molecule `C=CC(=O)N(C)c1cc(Nc2ncc(Cl)c(NCCCNC(=O)c3ccc(F)cc3)n2)ccc1F` [Example 23, N-(3-(5-chloro-2-(4-fluoro-3-(N-methylacrylamido)phenylamino)pyrimidinyl-4-amino)propyl)-4-fluorobenzamide], at JAK1, the “JAK1 RV (ratio between the inhibitory rate of the test compound and that of Xeljanz)” value is on record as 0.35; the inhibition at 0.3 µM was determined as 19%. For the same molecule, at TBK1, 664 nM corresponded to half-maximal inhibition (IC50). Besides, the inhibition at 0.03 µM at JAK2 turned out to be 0%. In addition, on JAK3, the “JAK3 RV (ratio between the inhibitory rate of the test compound and that of Xeljanz)” value came out at 0.88; the inhibition at 0.03 µM turned out to be 81%.

For the origin of these results see patent publication US10011571B2, “Preparation method for aromatic heterocyclic compound used as selective JAK3 and/or JAK1 kinase inhibitor and application of aromatic heterocyclic compound” (SHENZHEN CHIPSCREEN BIOSCIENCES, LTD., priority 2014, dated 2018).
